8 compounds from patent US11780840B2 (Incyte Corporation, priority 2020, dated 2023) can be followed below.

The target in experiment [1] is T1, pseudo-kinase domain (JH2, amino-acids 536-812 with 3 surface mutations W659A, W777A, F794H) of human V617F mutant JAK2 (Homo sapiens, UniProt O60674, F794H/V617F/W659A/W777A).
T1 construct: pseudo-kinase domain (JH2, amino-acids 536-812 with 3 surface mutations W659A, W777A, F794H); His (C); Avi (biotinylated) (C); purchased BPS Bioscience 79498; host or cells: baculovirus expression system
T1 sequence (O60674 536-812 V617F/W659A/W777A/F794H): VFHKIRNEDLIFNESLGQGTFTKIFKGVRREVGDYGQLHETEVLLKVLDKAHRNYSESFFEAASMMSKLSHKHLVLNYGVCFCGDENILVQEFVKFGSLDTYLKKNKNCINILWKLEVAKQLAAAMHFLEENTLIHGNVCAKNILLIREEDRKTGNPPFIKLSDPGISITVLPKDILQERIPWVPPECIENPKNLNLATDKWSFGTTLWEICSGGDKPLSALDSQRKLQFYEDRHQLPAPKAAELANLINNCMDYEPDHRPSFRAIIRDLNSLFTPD
As to the kind of experiment: JAK2 LanthaScreen JH2-V617F Binding Assay. Conditions: JAK2 JH2-V617F (0.26 nM), 50 nM Fluorescent JAK2-JH2 Tracer, 1 hour at 25° C.; read-out: JH2 BIND V617F. How it is done: Example C. JAK2 LanthaScreen JH2-V617F Binding Assay
(§1) JAK2 JH2-V617F binding assay utilizes pseudo-kinase domain (JH2, amino-acids 536-812 with 3 surface mutations W659A, W777A, F794H) of human V617F mutant JAK2 expressed as C-terminal His-Avi-tagged, biotinylated protein in a baculovirus expression system (BPS Bioscience, Catalog #79498). The assay was conducted in black 384-well polystyrene plates in a final reaction volume of 20 μL. JAK2 JH2-V617F (0.26 nM) was incubated with compounds (100 nL serially diluted in DMSO) in the presence of 50 nM Fluorescent JAK2-JH2 Tracer (MedChem Express Catalog #HY-102055) and 0.25 nM Streptavidin-Tb cryptate (Cisbio Part #610SATLB) in assay buffer (50 mM Tris, pH=7.5, 10 mM MgCl2, 0.01% Brij-35, 0.1% BSA, 1 mM EGTA, 5% Glycerol and 5 mM DTT). Non-specific binding was accessed in the presence of 2 mM ATP. After incubation for 1 hour at 25° C., LanthaScreen signals were read on a PHERAstar FS plate reader (BMG LABTECH). Data was analyzed with IDBS XLfit and GraphPad Prism 5.0 software using a four parameter dose response curve to determine IC50 for each compound.

The target in experiment [2] is T2, pseudo-kinase domain (JH2, amino-acids 536-812 with 3 surface mutations W659A, W777A, F794H) of human Wild Type JAK2 (Homo sapiens, UniProt O60674, F794H/W659A/W777A).
T2 construct: pseudo-kinase domain (JH2, amino-acids 536-812 with 3 surface mutations W659A, W777A, F794H); His (C); Avi (biotinylated) (C); purchased BPS Bioscience 79463; host or cells: baculovirus expression system
T2 sequence (O60674 536-812 W659A/W777A/F794H): as the sequence (O60674 536-812 V617F/W659A/W777A/F794H) above, with F82V counted along it
As to the kind of experiment: JAK2 LanthaScreen JH2-WT Binding Assay. Conditions: JAK2 JH2-WT (0.145 nM), 50 nM Fluorescent JAK2-JH2 Tracer, 1 hour at 25° C.; read-out: JH2 BIND WT. How it is done: Example B. JAK2 LanthaScreen JH2-WT Binding Assay
as §1, with “JH2-WT” for “JH2-V617F”, “Wild Type” for “V617F mutant”, “#79463).” for “#79498).”, “JH2-WT (0.145” for “JH2-V617F (0.26”
(In general: Time-resolved FRET reads energy transfer from a long-lived donor to a nearby acceptor.)

The target of experiment [3] is T3, catalytic domain (JH1, amino acids 826-1132) of human JAK2 (Homo sapiens, UniProt O60674).
T3 construct: catalytic domain (JH1, amino acids 826-1132) of human JAK2; FLAG (N); purchased Carna Biosciences 08-445-20N; host or cells: baculovirus expression system
T3 sequence (O60674 826-1132): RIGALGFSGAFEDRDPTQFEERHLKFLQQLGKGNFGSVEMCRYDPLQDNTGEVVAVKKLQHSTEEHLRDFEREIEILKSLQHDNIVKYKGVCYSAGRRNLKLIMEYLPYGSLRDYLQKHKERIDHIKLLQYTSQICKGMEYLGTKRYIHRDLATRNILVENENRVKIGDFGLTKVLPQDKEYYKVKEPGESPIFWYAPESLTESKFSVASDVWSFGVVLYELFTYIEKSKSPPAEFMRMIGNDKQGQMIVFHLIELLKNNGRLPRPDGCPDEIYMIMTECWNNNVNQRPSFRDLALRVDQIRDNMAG
Nature of the experiment: JAK2 LanthaScreen JH1 Binding Assay. Conditions: JAK2 JH1 (1.5 nM), 50 nM fluorescent JAK2-JH1 tracer, 2 hours at 25° C.; read-out: JH1 BIND. How it is done:
Example A. JAK2 LanthaScreen JH1 Binding Assay
JAK2 JH1 binding assay utilizes catalytic domain (JH1, amino acids 826-1132) of human JAK2 expressed as N-terminal FLAG-tagged, biotinylated protein in a baculovirus expression system (Carna Biosciences, Product #08-445-20N). The assay was conducted in black 384-well polystyrene plates in a final reaction volume of 20 μL. JAK2 JH1 (1.5 nM) was incubated with compounds (100 nL serially diluted in DMSO) in the presence of 50 nM fluorescent JAK2-JH1 tracer and 0.5 nM Streptavidin-Tb cryptate (Cisbio Part #610SATLB) in assay buffer (50 mM Tris, pH=7.5, 10 mM MgCl2, 0.01% Brij-35, 0.1% BSA, 1 mM EGTA, 5% Glycerol and 5 mM DTT). Non-specific binding was accessed in the presence of 2 mM ATP. After incubation for 2 hours at 25° C., LanthaScreen signals were read on a PHERAstar FS plate reader (BMG LABTECH). Data was analyzed with IDBS XLfit and GraphPad Prism 5.0 software using a four parameter dose response curve to determine IC50 for each compound.

Regarding `COc1ccc(-c2c(-c3ccc(CN4CCC(S(C)(=O)=O)CC4)cc3)[nH]c3ncc4c(c23)n(-c2ccccc2)c(=O)n4C)cc1` [Example 22, 8-(4-Methoxyphenyl)-3-methyl-7-(4-((4-(methylsulfonyl)piperidin-1-yl)methyl)phenyl)-1-phenyl-3,6-dihydroimidazo[4,5-d]pyrrolo[2,3-b]pyridin-2(1H)-one], the IC50 in experiment [1] is 10 to 100 nM; in experiment [2], 10 to 100 nM; in experiment [3], 100 to 500 nM.
For the compound `Cn1cc(-c2[nH]c3ncc4c(c3c2-c2ccc3c(cnn3C)c2)n([C@H]2C[C@@H](CC#N)C2)c(=O)n4C)cn1` [Example 101, 2-((1S,3S)-3-(3-Methyl-8-(1-methyl-1H-indazol-5-yl)-7-(1-methyl-1H-pyrazol-4-yl)-2-oxo-3,6-dihydroimidazo[4,5-d]pyrrolo[2,3-b]pyridin-1(2H)-yl)cyclobutyl)acetonitrile], the results for the IC50 in experiment [1], in experiment [2] and in experiment [3] were ≤ 10 nM, ≤ 10 nM and 100 to 500 nM, respectively.
`Cn1c(=O)n(C2CCCC2)c2c3c(-c4ccc(C5(C#N)CC5)cc4)c(-c4cnn(CS(C)(=O)=O)c4)[nH]c3ncc21` [Example 31, 1-(4-(1-Cyclopentyl-3-methyl-7-(1-((methylsulfonyl)methyl)-1H-pyrazol-4-yl)-2-oxo-1,2,3,6-tetrahydroimidazo [4,5-d]pyrrolo[2,3-b]pyridin-8-yl)phenyl)cyclo-propane-1-carbonitrile]: the IC50 was ≤ 10 nM in experiment [1], ≤ 10 nM in experiment [2] and 100 to 500 nM in experiment [3].
Turning to `Cn1ncc2cc(-c3c(-c4cnn(CC(C)(C)O)c4)[nH]c4ncc5c(c34)n([C@H]3CC[C@@H](CC#N)CC3)c(=O)n5C)ccc21` [Example 103, 2-((1S,4S)-4-(7-(1-(2-Hydroxy-2-methylpropyl)-1H-pyrazol-4-yl)-3-methyl-8-(1-methyl-1H-indazol-5-yl)-2-oxo-3,6-dihydroimidazo[4,5-d]pyrrolo[2,3-b]pyridin-1(2H)-yl)cyclohexyl)acetonitrile], the IC50 is ≤ 10 nM in experiment [1], ≤ 10 nM in experiment [2] and 100 to 500 nM in experiment [3].
Take `Cn1c(=O)n(-c2ccccc2)c2c3cc(-c4cnn(C5CCS(=O)(=O)C5)c4)[nH]c3ncc21` (stereo not drawn) [Example 6, 7-(1-(1,1-Dioxidotetrahydro-thiophen-3-yl)-1H-pyrazol-4-yl)-3-methyl-1-phenyl-3,6-dihydroimidazo[4,5-d]pyrrolo[2,3-b]pyridin-2(1H)-one]: the figures for the IC50 in experiment [1], in experiment [2] and in experiment [3] were 100 to 500 nM, 100 to 500 nM and 10 to 100 nM, respectively.
For the compound `COCC(=O)NC1CCC(n2c(=O)n(C)c3cnc4[nH]c(-c5cnn(CC(C)(C)O)c5)c(-c5ccc6c(cnn6C)c5)c4c32)CC1` (stereo not drawn) [Example 73, N-(4-(7-(1-(2-Hydroxy-2-methylpropyl)-1H-pyrazol-4-yl)-3-methyl-8-(1-methyl-1H-indazol-5-yl)-2-oxo-3,6-dihydroimidazo[4,5-d]pyrrolo[2,3-b]pyridin-1(2H)-yl)cyclohexyl)-2-methoxyacetamide], the IC50 in experiment [1] is ≤ 10 nM; in experiment [2], ≤ 10 nM; in experiment [3], > 1000 nM.
As for `CC(C)n1c(=O)n(C)c2cnc3[nH]c(-c4ccc(CN5CCC(S(C)(=O)=O)CC5)cc4)c(-c4ccc(C#N)cc4)c3c21` [Example 25, 4-(1-Isopropyl-3-methyl-7-(4-((4-(methylsulfonyl)piperidin-1-yl)methyl)phenyl)-2-oxo-1,2,3,6-tetrahydroimidazo [4,5-d]pyrrolo[2,3-b]pyridin-8-yl)benzonitrile], the IC50 was ≤ 10 nM in experiment [1], ≤ 10 nM in experiment [2] and 500 to 1000 nM in experiment [3].
Regarding `CCN1CCN(c2ccc(-c3cc4c(ncc5c4n(CC(=O)N4CCCCC4)c(=O)n5C)[nH]3)cc2)CC1` [Example 17, 7-(4-(4-Ethylpiperazin-1-yl)phenyl)-3-methyl-1-(2-oxo-2-(piperidin-1-yl)ethyl)-3,6-dihydroimidazo[4,5-d]pyrrolo[2,3-b]pyridin-2(1H)-one], the IC50 in experiment [1], in experiment [2] and in experiment [3] was > 1000 nM in each case.
